In patent US4263299A, “Heterocyclic coumarin derivatives” (Beecham Group Limited, priority 1978, dated 1981):
Where two headings read alike, the source gives them in different places.

Columns and labels:
[1] = target: T1, histamine (spasmogenic effects) on isolated guinea pig ileum (Cavia porcellus, UniProt P31389); assay: Anti-histamine activity in vitro on guinea pig ileum (pA2); settings: for Kb: read-out: pA2 Mean ± SEM (antihistamine activity in vitro) (converted)
T1 construct: isolated guinea pig ileum; from tissue; host or cells: isolated guinea pig ileum
T1 sequence (P31389 whole entry): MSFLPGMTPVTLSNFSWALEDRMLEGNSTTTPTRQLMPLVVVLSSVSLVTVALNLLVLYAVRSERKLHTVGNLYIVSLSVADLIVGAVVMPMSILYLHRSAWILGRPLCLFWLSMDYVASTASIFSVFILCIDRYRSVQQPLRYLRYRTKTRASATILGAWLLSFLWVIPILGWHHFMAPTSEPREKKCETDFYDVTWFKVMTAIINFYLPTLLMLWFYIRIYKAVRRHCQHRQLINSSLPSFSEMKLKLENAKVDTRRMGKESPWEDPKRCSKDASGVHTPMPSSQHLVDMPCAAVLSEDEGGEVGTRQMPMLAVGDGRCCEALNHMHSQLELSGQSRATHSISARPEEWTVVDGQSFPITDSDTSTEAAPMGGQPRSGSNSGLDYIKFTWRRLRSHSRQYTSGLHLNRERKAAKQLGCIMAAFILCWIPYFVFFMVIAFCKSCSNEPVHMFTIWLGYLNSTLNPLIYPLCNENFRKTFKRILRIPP
Procedure: (b) antagonise the spasmogenic effects of histamine on isolated guinea pig ileum.
(b) Measurement of anti-histamine activity in vitro on guinea pig ileum using the […]
The pA2 of the compound was determined in a similar manner to that described by Schild, H. O. (pA, A new scale for the measurement of drug antagonism. Brit. J. Pharmacol. 2, 189, 1947).

mice = assay: Acute intravenous toxicity in mice; format: in vivo, mouse
[2] = system: rat passive peritoneal anaphylaxis; assay: Rat passive peritoneal anaphylaxis (PPA); format: in vivo; settings: mean ± SEM, 3-7 rats per group
Text: (a) inhibit rat passive peritoneal anaphylaxis; and
(a) Rat passive peritoneal anaphylaxis (PPA)
The method has been described previously (Ross, Janet W., Smith, H. and Spicer, Barbara A. Increased vascular permeability during passive peritoneal anaphylaxis in the rat. Int. Arch. Allergy appl. Immun. 51, 226, 1976.)
Serum containing heat-labile homocytotropic antibody was raised in rats to ovalbumin by a method similar to that described by Mota, I. (The mechanism of anaphylaxis. I. Production and biological properties of mast cell sensitising antibody. Immunology, 7, 681; 1964). Male Wistar rats of 250-300 g were given intraperitoneal injections of 0.5 ml of Bordetella pertussis vaccine (4×10^10 organisms/ml; Burroughs Wellcome, London) and subcutaneous injections of 0.5 ml of an emulsion of 100 mg of ovalbumin in 2 ml of isotonic saline and 3 ml of Freund's incomplete adjuvant. The rats were bled by cardiac puncture on day 18, the blood was pooled and the serum separated, stored at -20° C. and thawed only once before use. The serum produced PCA activity in recipient rats down to a dilution of 1:32 to 1:64 after 72 hr and persisted for several days. This activity was lost to a dilution of 1:2 by heating at 56° for 4 hr even when the sensitising period was reduced to 4 hr.
Passive peritoneal anaphylaxis
Rats were given intraperitoneal injections of 2 ml of a 1:5 dilution of the rat anti-serum in isotonic saline. 2 hr later 0.3 ml of a 5% solution of Pontamine Sky Blue (Raymond A. Lamb, London) is isotonic saline was injected intravenously, followed by an intraperitoneal injection of the test compound in 1 ml of saline; (control rats received 1 ml of saline); followed 30 sec. later by an intraperitoneal injection of 5 ml of a Tyrode solution containing 50 μg/ml heparin and 0.4 mg/ml of ovalbumin. The concentrations of the compounds were quoted as those in the 6 ml of fluid injected intraperitoneally. Extractly 5 min. after challenge the rats were stunned and bled and their peritoneal fluids were collected by opening their peritoneal cavities over funnels into polycarbonate tubes in ice. The supernatants were separated from the cellular residue by centrifuging at 150 g for 5 min. and any samples obviously contaminated with blood were discarded and the remainder were retained for estimation of dye, histamine and SRS-A. Groups of at least 5 rats were used for each dose of compound and the treatments were randomized.
Assay of peritoneal fluids
Collected peritoneal fluids were immediately cooled to 0° C. and centrifuged and the supernatant fluids assayed for dye within 2 hr. 0.5-ml samples of the supernatants were added to 1 ml of 12% trichloracetic acid and stored at -20° C. and used to assay for histamine. The remainders of the supernatant fluids were placed in a boiling water bath for 5 min. and stored frozen at -20° C. until assayed for SRS-A.
The optical densities (OD) at 625 nm of the supernatants were determined. Samples were taken from supernatants with an OD greater than 2 and diluted in Tyrode's solution before reading.
Histamine was assayed using an automated spectrofluorimetric system (Technicon Autoanalyser) by a method similar to that of Evans, D. P., Lewis, J. A. and Thomson, D. S.: (An automated fluorimetric assay for the rapid determination of histamine in biological fluids. Life Sci. 12,327, 1973).
SRS-A was assayed on the isolated guinea pig ileum preparation in the presence of atropine (5×10^-7 M) and mepyramine maleate (10^-6 M), the latter to abolish the histamine response. (Brocklehurst, W. E. The release of histamine and formulation of a slow reacting substance (SRS-A) during anaphylactic shock. J. Physiol., Lond. 151, 416, 1960). Bulked peritoneal fluids from passively sensitised and challenged rats were centrifuged, heated, stored at -20° C. in 0.5 ml aliquots, and used as a reference SRS-A standard, and arbitrarily designated as containing 10 Units per ml. […]

[3] = contact time 10.0 min, (part assay) for 4d

Structure (SMILES) | Kb ([1]; contact time 0.5 min) [nM] | Kb ([1]; contact time 2.0 min) [nM] | Kb [1, 3] [nM] | Dye concentration in peritoneal fluid as % of that in control rats not given compound ([2]; 2 × 10^-6 M injected i.p.) [%] | Histamine concentration in peritoneal fluid as % of that in control rats not given compound ([2]; 2 × 10^-6 M injected i.p.) [%] | SRSA concentration in peritoneal fluid as % of that in control rats not given compound ([2]; 2 × 10^-6 M injected i.p.) [%] | pA2 Mean ± SEM (antihistamine activity in vitro) [1, 3] | Dye concentration in peritoneal fluid as % of that in control rats not given compound ([2]; 2 × 10^-5 M injected i.p.) [%] | Histamine concentration in peritoneal fluid as % of that in control rats not given compound ([2]; 2 × 10^-5 M injected i.p.) [%] | SRSA concentration in peritoneal fluid as % of that in control rats not given compound ([2]; 2 × 10^-5 M injected i.p.) [%] | Dye concentration in peritoneal fluid as % of that in control rats not given compound ([2]; 2 × 10^-4 M injected i.p.) [%] | Histamine concentration in peritoneal fluid as % of that in control rats not given compound ([2]; 2 × 10^-4 M injected i.p.) [%] | SRSA concentration in peritoneal fluid as % of that in control rats not given compound ([2]; 2 × 10^-4 M injected i.p.) [%] | other results
O=c1oc2cc(OCCCN3CCN(Cc4ccc(Cl)cc4)CC3)ccc2c(O)c1[N+](=O)[O-] [Example 1f, 1-(4-Chlorobenzyl)-4-[3-(4-hydroxy-3-nitrocoumarin-7-yloxy)propyl]piperazine] | 15.8 | 2.51 | 0.631 | 32.1 ± 3.6 | 28.4 ± 3.4 | 62.5 ± 17.2 | – | – | – | – | – | – | – | Deaths in mice at the high dose (mice; mice, intravenous, 300 mg/kg, group of three): all animals died; Deaths in mice during four days (mice; mice, intravenous, 1, 3 and 10 mg/kg, three groups of ten): No deaths occurred; Deaths in mice at the two lower doses (mice; mouse, in vivo): none; Dye concentration in peritoneal fluid as % of that in control rats not given compound ([2]; 2 × 10^-7 M injected i.p.): 88.1 ± 8.3%; Histamine concentration in peritoneal fluid as % of that in control rats not given compound ([2]; 2 × 10^-7 M injected i.p.): 75.8 ± 7.5%; SRSA concentration in peritoneal fluid as % of that in control rats not given compound ([2]; 2 × 10^-7 M injected i.p.): 71.8 ± 14.8%; Dye concentration in peritoneal fluid as % of that in control rats not given compound ([2]; 2 × 10^-8 M injected i.p.): 100 ± 16.7%; Histamine concentration in peritoneal fluid as % of that in control rats not given compound ([2]; 2 × 10^-8 M injected i.p.): 99.6 ± 8.3%; SRSA concentration in peritoneal fluid as % of that in control rats not given compound ([2]; 2 × 10^-8 M injected i.p.): 100 ± 14.8%
O=c1oc2cc(OCC(O)CN3CCN(Cc4ccc(Cl)cc4)CC3)ccc2c(O)c1[N+](=O)[O-] (centres unmarked) [Example 2d, 1-(4-Chlorobenzyl)-4-[2-hydroxy-3-(4-hydroxy-3-nitrocoumarin-7-yloxy)propyl]piperazine] | 50.1 | 20 | – | 46 ± 4 | 23 ± 1.0 | 65 ± 13 | 8.3 | 36 ± 4 | 13 ± 0.9 | 47 ± 11 | – | – | – | –
CCCc1c(OCC(O)CN2CCN(Cc3ccc(Cl)cc3)CC2)ccc2c(O)c([N+](=O)[O-])c(=O)oc12 (centres unmarked) [Example 3d, 1-(4-chlorobenzyl)-4-[2-hydroxy-3-(4-hydroxy-3-nitro-8-n-propylcoumarin-7-yloxy)propyl]piperazine] | 25.1 | 10 | – | 79 ± 9 | 55 ± 9 | 81 ± 6 | 8.4 | 47 ± 6 | 15 ± 2 | 75 ± 9 | – | – | – | –
O=c1oc2cc(OCCN3CCN(Cc4ccc(Cl)cc4)CC3)ccc2c(O)c1[N+](=O)[O-] [Example 4d, 1-(4-Chlorobenzyl)-4-[2-(4-hydroxy-3-nitrocoumarin-7-yloxy)ethyl]piperazine] | 63.1 | 50.1 | ~126 | – | – | – | – | 65 ± 11 | 39 ± 8 | 73 ± 7 | 40 ± 7 | 11 ± 0.9 | 26 ± 6 | –
O=c1oc2cc(CN3CCN(Cc4ccc(Cl)cc4)CC3)ccc2c(O)c1[N+](=O)[O-] [Example 5e, 1-(4-Chlorobenzyl)-4-[(4-hydroxy-3-nitrocoumarin-7-yl)methyl]piperazine] | 2000 | 2000 | – | 103 ± 13 | 93 ± 18 | 94 ± 10 | 5.6 | 88 ± 14 | 31 ± 2 | 67 ± 15 | 28 ± 9 | 17 ± 3 | – | –
O=c1oc2cc(OCCCN3CCN(Cc4ccccc4)CC3)ccc2c(O)c1[N+](=O)[O-] [Example 6d, 1-Benzyl-4-[3-(4-hydroxy-3-nitrocoumarin-7-yloxy)propyl]piperazine] | 79.4 | 25.1 | – | – | – | – | 7.9 | 91 ± 12 | 56 ± 8 | 86 ± 14 | 67 ± 10 | 12 ± 1.0 | 55 ± 5 | –
